Measurements published in ChEMBL document CHEMBL1201862, “PubChem BioAssay data set” (2004).
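Assay format: 96-well plates, 48-hour exposure. GI50 marks 50% less growth.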 Activity calls are given as the source filed them. Rule as the data show it: active = GI50 up to about 1.1 µM and inactive = higher.

Tests used:
Assay in all cases: NCI anticancer screen, dose series, 48 h
CAKI-1 = test system: CAKI-1
IGROV-1 = test system: IGROV-1
DU-145 = test system: DU-145
NCI-H226 = test system: NCI-H226
HCT-15 = test system: HCT-15
HL-60 = test system: HL-60
KM12 = test system: KM12
A549 = test system: A549
OVCAR-4 = test system: OVCAR-4
LOX IMVI = test system: LOX IMVI
EKVX = test system: EKVX
T47D = test system: T47D
SN12C = test system: SN12C
SNB-75 = test system: SNB-75
MOLT-4 = test system: MOLT-4
SNB-19 = test system: SNB-19
MDA-MB-231 = test system: MDA-MB-231
MDA-N = test system: MDA-N
RPMI-8226 = test system: RPMI-8226

Measured: GI50

CCCNc1[nH]c(C(=O)c2ccccc2)c(N)c1C(=S)Nc1ccccc1
inactive: CAKI-1 > 100 µM | IGROV-1 > 100 µM | DU-145 > 100 µM | NCI-H226 > 100 µM | HL-60 > 100 µM | KM12 > 100 µM | A549 > 100 µM | OVCAR-4 > 100 µM | LOX IMVI > 100 µM | EKVX > 100 µM | T47D > 100 µM | SN12C > 100 µM | SNB-75 > 100 µM | MOLT-4 > 100 µM | SNB-19 > 100 µM | MDA-MB-231 > 100 µM | MDA-N > 100 µM
> 100 µM: HCT-15

CNn1c(-c2ccccc2)n[nH]c1=O
> 100 µM: HCT-15
inactive: CAKI-1 > 100 µM | IGROV-1 > 100 µM | DU-145 > 100 µM | NCI-H226 > 100 µM | HL-60 > 100 µM | KM12 > 100 µM | A549 > 100 µM | OVCAR-4 > 100 µM | LOX IMVI > 100 µM | RPMI-8226 > 100 µM | EKVX > 100 µM | T47D > 100 µM | SN12C > 100 µM | SNB-75 > 100 µM | MOLT-4 > 100 µM | SNB-19 > 100 µM | MDA-MB-231 > 100 µM | MDA-N > 100 µM

COc1cc(Br)c(CC2C3=C(CCN2C(=O)C2CCC2)CC(=O)CC3)cc1O (stereo unspecified)
inactive: IGROV-1 36.3 µM | DU-145 49.4 µM | NCI-H226 41.9 µM | HL-60 5.9 µM | KM12 27.2 µM | A549 61.7 µM | LOX IMVI 47.8 µM | RPMI-8226 32.7 µM | EKVX 30.2 µM | T47D 26.2 µM | SN12C 51.3 µM | SNB-75 26.8 µM | MOLT-4 26.1 µM | SNB-19 51.2 µM | MDA-MB-231 26.5 µM | MDA-N 19.6 µM
18.7 µM: HCT-15

COP(=O)(OC)/C(=C/c1cn(C(C)=O)c2ccccc12)NC(C)=O
inactive: CAKI-1 40.9 µM | IGROV-1 54.8 µM | DU-145 > 100 µM | HL-60 13.1 µM | A549 > 100 µM | OVCAR-4 33.2 µM | LOX IMVI 13 µM | RPMI-8226 12.6 µM | T47D 38.5 µM | SN12C 31.6 µM | SNB-75 49.2 µM | MOLT-4 > 10 µM | MDA-MB-231 36.1 µM | MDA-N 13.8 µM
18.1 µM: HCT-15

C=C(C)C1CC(=O)C(C)=C(O)C1 (stereo unspecified)
> 100 µM: HCT-15
inactive: CAKI-1 > 100 µM | IGROV-1 > 100 µM | DU-145 > 100 µM | NCI-H226 > 100 µM | HL-60 > 100 µM | KM12 > 100 µM | A549 > 100 µM | OVCAR-4 > 100 µM | LOX IMVI > 100 µM | EKVX > 100 µM | T47D > 100 µM | SN12C > 100 µM | SNB-75 > 100 µM | MOLT-4 > 100 µM | SNB-19 > 100 µM | MDA-MB-231 > 100 µM | MDA-N > 100 µM

Cc1nc2ccccc2[nH]/c1=N/Nc1ccccc1
18.9 µM: HCT-15
inactive: CAKI-1 27 µM | IGROV-1 3.73 µM | DU-145 22.7 µM | NCI-H226 18.3 µM | HL-60 11.7 µM | KM12 14.5 µM | A549 21.5 µM | OVCAR-4 9.66 µM | LOX IMVI 23.3 µM | RPMI-8226 8.2 µM | EKVX 4.17 µM | T47D 2.11 µM | SN12C 26.4 µM | SNB-75 18.1 µM | SNB-19 45.1 µM | MDA-MB-231 28 µM | MDA-N 19.5 µM

Nc1ccc2c(c1)C1Oc3ccccc3CC1CO2 (stereo unspecified)
inactive: CAKI-1 > 100 µM | IGROV-1 > 100 µM | DU-145 > 100 µM | NCI-H226 > 100 µM | HL-60 > 100 µM | KM12 > 100 µM | A549 > 100 µM | LOX IMVI > 100 µM | RPMI-8226 > 100 µM | EKVX > 100 µM | T47D 76 µM | SN12C > 100 µM | MOLT-4 > 100 µM | MDA-MB-231 > 100 µM | MDA-N > 100 µM
15.7 µM: HCT-15
